{"source": "patent US20260069694A1", "about": "“IDENTIFICATION OF HIGHLY IMMUNOSUPRESIVE TREG POPULATION IN TUMOR MICROENVIRONMENTS” (THE TRUSTEES OF COLUMBIA UNIVERSITY IN THE CITY OF NEW YORK, priority 2023, published 2026)", "key": {"[1]": {"system": "primary PDAC tumors of transgenic KPC mice", "test": "Long-term treatment of transgenic KPC mice; IHC/IF of primary PDAC tumors", "assay_type": "in vivo, mouse", "settings": "per high-power field", "procedure": "Long-term treatment studies using combinations of iRGD, Gem, and Nab-P in transgenic KPC mice and subsequent immunohistochemistry (IHC) were performed as previously reported.\nFor the data presented in FIG. 1, primary PDAC tumors were collected from transgenic KPC mice that received long-term treatment with Gem, iRGD, or iRGD+Gem as part of a previously published survival study. The primary PDAC tumors were immunohistochemically analyzed for the presence of CD8+ T cells.\nPrimary PDAC tumors were collected from transgenic KPC mice that received long-term treatment with or without Gem, iRGD, or iRGD+Gem as part of a previously published survival study. The presence of Foxp3+ Tregs in the primary PDAC tumors was analyzed by immunofluorescence."}, "[2]": {"system": "naïve CD4+ T cells / CD4+CD25+Foxp3+ iTregs", "test": "iTreg induction from naive CD4+ T cells in the absence or presence of iRGD or iRGE", "assay_type": "cell-based, mouse", "procedure": "Naïve CD4^+ T cells and nTregs were isolated from the spleen of healthy C57B6129SF1/J mice by magnetic separation using a mouse CD4+ T cell isolation kit and PE-conjugated anti-mouse CD25 with anti-PE magnetic separation micro beads (Miltenyi Biotec™). The isolated T cells were stimulated with anti-CD3/CD28 beads (×25 dilution; Miltenyi Biotec™) in the presence or absence of recombinant mouse TGF-β1 (5 ng/ml; Bio-Techne™ Corporation) for 3 days. iRGD (100 μM) or iRGE (100 μM) peptide was added to the cultures in some experiments. To study the effect of TGF-β1 on the induction of αvβ5 integrin+ iTregs, naïve CD4+ T cells were cultured with anti-CD3/CD28 beads (x 25 dilution) and TGF-β1 (5 ng/ml) in the presence or absence of varying concentrations of a TGF-βR1 inhibitor (LY2157299; Selleck™ Chemicals LLC). To study the effect of TCR stimulation on the induction of αvβ5 integrin+ iTregs, naïve CD4+ T cells treated with varying concentrations of plate-coated anti-mouse CD3 Ab (eBioscience™) in the presence of soluble anti-mouse CD28 Ab (2 μg/ml) (eBioscience™) and TGF-β1 (5 ng/ml). The cells were subjected to flow cytometry as described elsewhere.\nFor the data presented in FIG. 31, FIG. 32A, and FIG. 32B, naïve CD4+ T cells were stimulated with anti-CD3/CD28 Abs and TGF-β1 in the absence or presence of iRGD or iRGE. Flow cytometry was performed to quantify the proportion of CD4+CD25+Foxp3+ iTregs (see FIG. 31) and αvβ5 integrin+ cells among the iTregs (See FIG. 32A). Apoptosis of αvβ5 integrin+ iTregs was quantitated by measuring cleaved caspase 3 using flow cytometry (see FIG. 32B; n=3).\nTo investigate whether iRGD Reduces CD4+CD25+Foxp3+ iTregs in an RGD-Dependent Manner in Vitro, naïve CD4+ T cells were stimulated with anti-CD3/CD28 Abs and TGF-β1 in the absence or presence of the iRGD or iRGE peptide. The resulting cells were subjected to flow cytometry to analyze the expression of CD25 and Foxp3 in the CD4+ T cells (FIG. 33A) and the expression of the αvβ5 integrin and NRP-1 on CD4+CD25+Foxp3+ iTregs (FIG. 33B). The bar diagram in (FIG. 33C) summarizes the proportion of NRP-1+ cells among the iTregs. The statistical analysis used was the one-way ANOVA; p=0.8221. n=3 per group.\nThe proportion of apoptotic αvβ5 integrin+ iTregs (FIG. 34) and CD4+Foxp3neg T cells (FIG. 35) was quantitated by measuring cleaved caspase 3 using flow cytometry. The statistical analysis used was Welch's t test; p=0.0705 (n=3). The dot plots and histograms of FIG. 33C and FIG. 35 show representative data from the 3 independent experiments. The error bars indicate the mean±standard error; N.S., not significant."}, "[3]": {"system": "Tregs that were expanded in the presence of PDAC cells", "test": "FAM-iRGD binding to Tregs expanded with PDAC cells (flow cytometry)", "parameters": "species or system mouse", "settings": "flow cytometry MFI", "procedure": "The isolated immune cells were subjected to flow cytometry for quality check and to analyze the cell populations of interest. […] The binding was analyzed by flow cytometry.\nCD4+ T cells were magnetically isolated from the spleens of healthy C57B6129SF1/J mice using a mouse CD4+ T cell isolation kit (Miltenyi Biotec™). The CD4+ T cells were cultured for 3 days with or without KPC-derived PDAC cells in the presence of low dose anti-CD3/CD28 beads (×40 dilution; Miltenyi Biotec™), TGF-β1 (5 ng/ml; Bio-Techne Corporation™), and recombinant mouse interleukin-2 (mIL-2, 100 U/ml; Roche™), and subjected to flow cytometry as described elsewhere. In some cases, 1.0 mM iRGD was added to the culture in binding buffer supplemented with mIL-2 to study the effect on apoptosis. The cells were then stained with FITC-conjugated annexin V (BioLegend™) and 7-AAD (BioLegend™) for 15 minutes at room temperature to detect apoptotic cells by flow cytometry.\nFor the data presented in FIG. 16 through FIG. 19, CD4+ T cells isolated from the spleen of healthy C57B6129SF1/J hybrid mice were expanded for 3 days in vitro in the presence of KPC-derived PDAC cells. Flow cytometry was performed for subsequent analyses. […] The bar diagram summarizes the median fluorescence intensity (MFI) from 4 independent experiments. […] Apoptosis was quantitated by measuring annexin V and 7-AAD double positive cells by flow cytometry (n=3)."}, "metastatic PDAC": {"system": "metastatic PDAC", "settings": "in combination with gemcitabine (Gem) and nab-paclitaxel (Nab-P), phase 1b; cited from earlier work"}, "[4]": {"settings": "peptide 100 μM, anti-CD3/CD28 Abs and TGF-β1"}}, "note": "Entries after “also recorded” stand apart in the source; their conditions may differ.", "data": [{"sequence": "CRGDKGPDC [iRGD]", "values": [{"measurement": "number of CD8+ T cells in the PDAC tissue", "setting": "[1]; IHC, long-term treatment", "result": "increased the number of CD8+ T cells"}, {"measurement": "PDAC-resident cells expressing Foxp3 (Foxp3+ Tregs)", "setting": "[1]; immunofluorescence, compared to the other arms", "result": "less PDAC-resident cells expressing Foxp3"}, {"measurement": "apoptosis of CD4+Foxp3neg T cells (cleaved caspase 3)", "setting": "[2]; flow cytometry", "result": "Neither iRGD nor iRGE increased the apoptosis"}, {"measurement": "apoptosis of αvβ5 integrin+ Tregs (cleaved caspase 3)", "setting": "[2]; flow cytometry", "result": "induces apoptosis of αvβ5 integrin^+ Tregs in an RGD-dependent manner; also recorded: increased apoptosis"}, {"measurement": "proportion of NRP-1-positive iTregs", "setting": "[2]; peptide 100 μM", "result": "did not alter the proportion"}, {"measurement": "proportion of CD4+CD25+Foxp3+ iTregs", "setting": "[2]; [4]", "result": "reduction"}, {"measurement": "αvβ5 integrin-positive population among the iTregs", "setting": "[2]; [4]", "result": "reduction"}, {"measurement": "binding to αvβ5 integrin+ Tregs induced in the presence of PDAC cells", "setting": "[3]", "result": "Binds"}, {"measurement": "efficacy against metastatic PDAC", "setting": "metastatic PDAC", "result": "promising preliminary efficacy"}]}]}
